Assay results: patent publication US8623846B2, “Diazeniumdiolate cyclohexyl derivatives” (Merck Sharp & Dohme Corp., priority 2010, dated 2014)

System: Male beagle dogs
Experiment: canine telemetry protocol, blood pressure reduction efficacy
Type: in vivo
Conditions: change from baseline, 3 mg/kg oral gavage; for ΔPP (mm Hg) 1-6 h / ΔPP (mm Hg) 6-12 h / ΔPP (mm Hg) 12-18 h: pulse pressure; for ΔSBP (mm Hg) 1-6 h / ΔSBP (mm Hg) 6-12 h / ΔSBP (mm Hg) 12-18 h: systolic blood pressure
Protocol: Compounds of the invention were evaluated for blood pressure reduction efficacy using the following canine telemetry protocol described below.
Male beagle dogs (approximately 1-3 years old) with a body weight of between 10 and 16 kg were surgically implanted with DSI radiotelemetry devices (model: TL11M2-D70-PCT). Briefly, under an inhalant anesthesia, isoflurane/oxygen mixture (1-3.5%/to effect), the body of the telemetry device was positioned and secured intra-abdominally. Subsequently, the arterial catheter of the telemetry device was passed subcutaneously to the inguinal area and introduced into the femoral artery and advanced to the level of the descending aorta. The catheter was secured with 2-0 silk ligatures. The muscle and underlying fascia was closed over the catheter using absorbable suture and the skin was closed using non-absorbable suture. The animals were allowed a minimum recovery period of 2 weeks between surgery and the evaluation of test compounds.
Compound evaluation consisted of a 3 day paradigm at a 3 mg/kg dose. On the first day, no compounds were administered during a 24 hour period of baseline data collection. Blood pressure and heart rate data were collected continuously for one minute periods at 10 minute intervals. On the days of compound administration half the animals received test article with the other half receiving the vehicle used for compound formulation. All test materials were administered by oral gavage in a volume of 1 mL/kg. Data are expressed either as raw values (mm Hg or beats per minute) or as the change from baseline (average value for about 12 hours in low activity period prior to dosing). Change is SBP (systolic blood pressure) and PP (pulse pressure) over time is shown below: […]

SMILES	ΔPP (mm Hg) 1-6 h [mm Hg]	ΔPP (mm Hg) 6-12 h [mm Hg]	ΔPP (mm Hg) 12-18 h [mm Hg]	ΔSBP (mm Hg) 1-6 h [mm Hg]	ΔSBP (mm Hg) 6-12 h [mm Hg]	ΔSBP (mm Hg) 12-18 h [mm Hg]
CCN(/[N+]([O-])=N/O[C@H]1CC[C@@H](C(=O)O)CC1)C(C)(C)C [Example 1, Cis-4-({[(1Z)-2-tert-butyl-2-ethyl-1-oxido-1λ^5-diazan-1-ylidene]amino}oxy)-cyclohexanecarboxylic acid]	−1	−6	−1	−9	−5	−1
CCN(/[N+]([O-])=N/O[C@H]1CC[C@H](C(=O)O)CC1)C(C)(C)C [Example 2, Trans-4-({[(1Z)-2-tert-butyl-2-ethyl-1-oxido-1λ^5-diazan-1-ylidene]amino}oxy)-cyclohexanecarboxylic acid]	−9	−9	−7	−14	−10	−9
CN(/[N+]([O-])=N/O[C@H]1CC[C@@H](C(=O)O)CC1)C(C)(C)C [Example 3, Cis-4-({[(1Z)-2-tert-butyl-2-methyl-1-oxido-1λ^5-diazan-1-ylidene]amino}oxy)-cyclohexanecarboxylic acid]	−7	−8	−5	−8	−10	−5
CN(/[N+]([O-])=N/O[C@H]1CC[C@H](C(=O)O)CC1)C(C)(C)C [Example 6, Trans-4-({[(1Z)-2-tert-butyl-2-methyl-1-oxido-1λ^5-diazan-1-ylidene]amino}oxy)-cyclohexanecarboxylic acid]	−12	−4	−2	−18	−4	−2
CCCCN(/[N+]([O-])=N/O[C@H]1CC[C@H](C(=O)O)CC1)C(C)(C)C [Example 8, Trans-4-({[(1Z)-2-butyl-2-tert-butyl-1-oxido-1λ^5-diazan-1-ylidene]amino}oxy)-cyclohexanecarboxylic acid]	−11	−15	−12	−14	−14	−8
